One substance from patent publication EP3656762A1, “COMPOUNDS FOR THE TREATMENT OF NF-KB-RELATED DISEASES OR DISORDERS” (Instituto Biomar S.A., priority 2018, dated 2020) can be followed below.

This assay has as its system Experimental Autoimmune Encephalomyelitis (EAE). To be noted: MOG35-55 induced EAE; i.p. daily from day 0; Compound 1 3 mg/kg, Cyclosporine A 10 mg/kg; score 0-8; mean ± SEM.

Consider Cyclosporine A, for which the “MaxES (Maximum EAE score)” value turned out to be 3.0±0.1.
